Publication PMC12369479 (Journal of Experimental Botany, 2025)
Where two headings read alike, the source gives them in different places.

Tests used:
[1] = target: ZmADK1 (Zea mays, UniProt K7UH13); assay: ADK activity, coupled reaction with PK and LDH; conditions: 100 µM substrate, 10 mM ATP, pH 7.5, 30 °C
Description: (§1) Substrate analogs were purchased from Sigma-Aldrich (www.sigmaaldrich.com). The ADK activity was measured spectrophotometrically on an Agilent 8453 UV-Vis spectrophotometer (www.agilent.com) at 30 °C using a coupled reaction with pyruvate kinase (PK) and lactate dehydrogenase (LDH) (www.sigmaaldrich.com) ([Blondin et al., 1994]). In this assay, PK converts ADP produced by ADK and phosphoenolpyruvate (PEP) to pyruvate. Subsequently, LDH then converts pyruvate to lactate using the coenzyme NADH, with the conversion monitored at 340 nm. The reaction was conducted in 50 mM Tris–HCl buffer at pH 7.5, containing 50 mM KCl, 6 mM MgCl2, 300 µM PEP, 200 µM NADH, 10 mM ATP, 2 U of PK, and 2.5 U of LDH, using various nucleoside substrates. Kinetic constants were determined using GraphPad Prism 8.0 software (www.graphpad.com). Each measurement was performed six times using repetitive purified enzymes. The activities of all five ADKs were also measured by HPLC ([Moffatt et al., 1991]). The reaction mixture comprised 50 mM Tris–HCl pH 7.5, 5 mM MgCl2, 0.5 mM DTT, 30 mM NaF, 5 mM ATP, 40 µM substrate, and 2–150 ng of purified ADK, depending on the isoform. The reaction was incubated at 30 °C for up to 1 h. […] Similarly, the conversion of cytokinin ribosides to monophosphates was followed on a LiChrosphere 60 RP-Select B (5 µm) LiChroCART column 125-4 column equilibrated with 10 mM triethylamine at pH 5.4 plus 10% methanol, and stepwise eluted with 100% methanol.

[2] = target: PpADK2 (Physcomitrium patens, UniProt A9RF27); assay: ADK activity, coupled reaction with PK and LDH; conditions: 100 µM substrate, 10 mM ATP, pH 7.5, 30 °C
Sequence of PpADK2 (A9RF27 entry or part of it): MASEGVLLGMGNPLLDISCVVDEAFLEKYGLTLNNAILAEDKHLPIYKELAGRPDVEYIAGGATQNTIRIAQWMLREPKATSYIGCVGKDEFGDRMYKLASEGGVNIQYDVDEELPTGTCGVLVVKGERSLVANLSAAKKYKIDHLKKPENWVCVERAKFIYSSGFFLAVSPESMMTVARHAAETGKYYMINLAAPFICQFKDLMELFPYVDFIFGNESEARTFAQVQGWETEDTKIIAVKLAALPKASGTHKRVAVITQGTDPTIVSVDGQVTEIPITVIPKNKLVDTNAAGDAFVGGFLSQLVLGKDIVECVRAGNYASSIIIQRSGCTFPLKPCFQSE
Description: as §1

[3] = target: T1, ZmADK2 (Zea mays, UniProt B4FFH8, T4S); assay: Binding affinity by microscale thermophoresis (MST); conditions: for Kd: MST; for weaker affinity compared with Ado: ratio of KD values
T1 sequence (B4FFH8 1-342 T4S): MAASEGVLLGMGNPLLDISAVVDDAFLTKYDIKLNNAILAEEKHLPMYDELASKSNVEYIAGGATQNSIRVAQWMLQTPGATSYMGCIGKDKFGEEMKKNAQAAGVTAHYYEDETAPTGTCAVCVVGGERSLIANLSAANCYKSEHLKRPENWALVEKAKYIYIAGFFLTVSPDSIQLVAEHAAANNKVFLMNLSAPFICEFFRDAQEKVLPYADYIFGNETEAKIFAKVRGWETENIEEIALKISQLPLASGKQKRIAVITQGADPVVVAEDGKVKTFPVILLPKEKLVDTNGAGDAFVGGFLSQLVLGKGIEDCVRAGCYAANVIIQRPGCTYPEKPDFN
Description: The microscale thermophoresis (MST) method was used to determine the binding affinity of various ribosides for ZmADK2 and PpADK1. Proteins were fluorescently labeled with RED-tris-NTA dye (www.nanotemper-technologies.com) using a 1:1 dye/protein molar ratio. The labeled protein was adjusted to 100–300 nM in 50 mM HEPES buffer pH 7.5, 1 mM MgCl2, and 0.2% Tween. Measurements were performed in premium capillaries on a Monolith NT.115 instrument at 30 °C with 5 s/30 s/5 s laser off/on/off times, respectively, with continuous sample fluorescence recording. Thermal stability was measured by nano-differential scanning fluorimetry on a Prometheus NT.48 instrument (www.nanotemper-technologies.com) in various buffers covering a pH (7.0–9.5) and temperature range (25–95 °C), with a heating rate of 1 °C min^–1, and using NT melting control software. Protein unfolding was measured by detecting the temperature-induced change in tryptophan fluorescence intensity at emission wavelengths of 330±5 nm and 350±5 nm. The melting temperature (Tm) was deduced from the maximum of the first derivative of the fluorescence ratios F350/F330.

[4] = target: ZmADK3 (Zea mays, UniProt A0A1D6E5Z5); assay: ADK activity, coupled reaction with PK and LDH; format: biochemical; conditions: ZmADK3; 100 µM substrate; 10 mM ATP; pH 7.5; 30 °C
Sequence of ZmADK3 (A0A1D6E5Z5 entry or part of it): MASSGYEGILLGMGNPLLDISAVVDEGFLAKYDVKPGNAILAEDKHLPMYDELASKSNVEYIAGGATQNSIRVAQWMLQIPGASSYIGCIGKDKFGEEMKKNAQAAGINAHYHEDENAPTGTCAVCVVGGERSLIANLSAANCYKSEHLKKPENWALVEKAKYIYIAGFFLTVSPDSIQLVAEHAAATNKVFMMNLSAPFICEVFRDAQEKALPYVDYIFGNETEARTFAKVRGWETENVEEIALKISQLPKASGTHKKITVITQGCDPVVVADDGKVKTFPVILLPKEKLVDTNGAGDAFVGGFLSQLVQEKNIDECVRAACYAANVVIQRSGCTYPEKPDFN
Description: Substrate analogs were purchased from Sigma-Aldrich (www.sigmaaldrich.com). […] In this assay, PK converts ADP produced by ADK and phosphoenolpyruvate (PEP) to pyruvate. Subsequently, LDH then converts pyruvate to lactate using the coenzyme NADH, with the conversion monitored at 340 nm. The reaction was conducted in 50 mM Tris–HCl buffer at pH 7.5, containing 50 mM KCl, 6 mM MgCl2, 300 µM PEP, 200 µM NADH, 10 mM ATP, 2 U of PK, and 2.5 U of LDH, using various nucleoside substrates. Kinetic constants were determined using GraphPad Prism 8.0 software (www.graphpad.com). Each measurement was performed six times using repetitive purified enzymes. […] The reaction mixture comprised 50 mM Tris–HCl pH 7.5, 5 mM MgCl2, 0.5 mM DTT, 30 mM NaF, 5 mM ATP, 40 µM substrate, and 2–150 ng of purified ADK, depending on the isoform. The reaction was incubated at 30 °C for up to 1 h.

[5] = target: T1, ZmADK2; assay: ADK activity, coupled reaction with PK and LDH; format: biochemical; conditions: ZmADK2, 10 mM ATP, pH 7.5, 30 °C; for Specific activity: 100 µM substrate
Description: as §1

[6] = target: T2, PpADK1 (Physcomitrium patens, UniProt O49923); assay: ADK activity, coupled reaction with PK and LDH; format: biochemical, Physcomitrella patens; conditions: 100 µM substrate, 10 mM ATP, pH 7.5, 30 °C
T2 construct: made in house; host or cells: E. coli T7 Express Iq
T2 sequence (O49923 whole entry): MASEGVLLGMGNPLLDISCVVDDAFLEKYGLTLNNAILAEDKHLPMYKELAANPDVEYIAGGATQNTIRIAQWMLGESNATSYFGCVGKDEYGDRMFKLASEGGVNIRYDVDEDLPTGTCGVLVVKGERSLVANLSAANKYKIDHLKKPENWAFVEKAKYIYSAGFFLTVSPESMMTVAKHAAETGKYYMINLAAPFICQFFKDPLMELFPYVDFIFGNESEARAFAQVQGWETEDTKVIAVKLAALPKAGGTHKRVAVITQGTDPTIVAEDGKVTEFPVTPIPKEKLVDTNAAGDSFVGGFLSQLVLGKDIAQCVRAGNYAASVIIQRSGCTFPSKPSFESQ
Description: as §1

[7] = system: rabbit ADK; design: method as in Miller et al., 1979a; conditions: ref Miller et al., 1979a; cited from earlier work
[8] = 50 mM HEPES pH 7.5, 1 mM MgCl2, first or only binding event, read-out: KD
[9] = KD, 50 mM HEPES pH 7.5, 1 mM MgCl2, first or only binding event

Sequence of ZmADK1 (K7UH13 entry or part of it): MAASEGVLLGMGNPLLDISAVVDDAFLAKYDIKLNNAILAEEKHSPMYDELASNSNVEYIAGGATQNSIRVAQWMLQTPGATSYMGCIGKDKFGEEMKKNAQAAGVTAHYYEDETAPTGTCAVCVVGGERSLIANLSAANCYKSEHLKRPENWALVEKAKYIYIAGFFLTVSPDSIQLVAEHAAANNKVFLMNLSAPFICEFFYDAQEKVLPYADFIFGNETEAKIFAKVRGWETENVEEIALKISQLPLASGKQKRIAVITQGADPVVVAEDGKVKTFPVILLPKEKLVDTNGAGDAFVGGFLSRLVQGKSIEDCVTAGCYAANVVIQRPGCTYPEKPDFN

| Compound | Specific activity [1] [nmol s^–1 mg^–1] | Specific activity [2] [nmol s^–1 mg^–1] | Kd [3, 8] [µM] | Specific activity [4] [nmol s^–1 mg^–1] | Specific activity [5] [nmol s^–1 mg^–1] | Km [5] [µM] | kcat [5] [s^–1] | Specific activity [6] [nmol s^–1 mg^–1] | Kd [3, 9] [µM] | also measured |
| --- | --- | --- | --- | --- | --- | --- | --- | --- | --- | --- |
| CC(C)CNc1ncnc2c1ncn2[C@@H]1O[C@H](CO)[C@@H](O)[C@H]1O [N ^6-IsobutylAdo] | 2.1±0.4 | 0.75±0.08 | 45.9 ± 9.3 | 4.8±0.5 | 4.2±0.6 | 70.4 ± 8.9 | 0.21±0.01 | 0.90±0.06 |  |  |
| C/C(=C\CNc1ncnc2c1ncn2[C@@H]1O[C@H](CO)[C@@H](O)[C@H]1O)CO [ZR] |  |  |  |  |  |  |  |  |  | Km [7]: 20 µM; activity compared with Ado [7]: 6.3% |
| Nc1ccn([C@@H]2O[C@H](CO)[C@@H](O)[C@H]2O)c(=O)n1 [Cytidine] |  |  |  |  |  |  |  |  | 286 ± 10 |  |
| Nc1ncnc2c1ncn2[C@@H]1O[C@H](CO)C[C@H]1O [3′-DeoxyAdo, cordycepin] |  |  |  |  |  |  |  |  | 175 ± 9 | Km [7]: 254 µM |
| CN(C)c1ncnc2c1ncn2[C@@H]1O[C@H](CO)[C@@H](O)[C@H]1O [N ^6,N^6-DimethylAdo, 6-(dimethylamino)-9H-purine-9-β-D-riboside] | 3.0±0.3 | 0.86±0.03 | 12.3 ± 4.6 | 5.1±0.4 | 3.2±0.0 | 11.2 ± 2.8 | 0.20±0.02 | 0.91±0.02 |  |  |
| Nc1ncnc2c1ccn2[C@@H]1O[C@H](CO)[C@@H](O)[C@H]1O [7-DeazaAdo, tubercidin] |  |  |  |  |  | 3.4 ± 0.4 | 0.17±0.01 |  | 2.2 ± 0.7 | weaker affinity compared with Ado [3]: ~ 5.5 fold |
| CNc1ncnc2c1ncn2[C@@H]1O[C@H](CO)[C@@H](O)[C@H]1O [N ^6-MethylAdo, 6-methylamino-9H-purine-9-β-D-riboside] | 2.7±0.2 | 0.86±0.03 | 8.7 ± 2.5 | 5.1±0.4 | 2.9±0.3 | 10.7 ± 1.5 | 0.24±0.02 | 0.89±0.00 |  |  |
| Nc1ncnc2c1ncn2[C@@H]1O[C@H](CO)[C@@H](O)[C@@H]1O [AraA, Adenine arabinoside] |  |  |  |  |  |  |  |  | > 500 |  |
| Nc1ncnc2c1ncn2C1CC(O)C(CO)O1 (stereo not shown) [2′-DeoxyAdo] |  |  | 505 ± 94 |  |  | 506 ± 39 | 0.46±0.02 |  |  | Kd ([3]; 50 mM HEPES pH 7.5, 1 mM MgCl2, first or only binding event, listed as 2′-deoxyAdo, read-out: KD): ~500 µM; weaker affinity compared with Ado [3]: ~ 1200 fold; Km [7]: 575 µM; Km ([5]; listed as 2′-deoxyAdo): ~500 µM |
| O=c1[nH]c(=O)c2ncn([C@@H]3O[C@H](CO)[C@@H](O)[C@H]3O)c2[nH]1 [Xanthosine] |  |  |  |  |  |  |  |  | 166 ± 77 |  |
| CC(C)Nc1ncnc2c1ncn2[C@@H]1O[C@H](CO)[C@@H](O)[C@H]1O [N ^6-IsopropylAdo] | 2.2±0.2 | 0.83±0.05 | 52.8 ± 13.9 | 3.8±0.3 | 3.9±0.5 | 54.8 ± 5.8 | 0.19±0.01 | 0.96±0.09 |  |  |
| O=c1ccn([C@@H]2O[C@H](CO)[C@@H](O)[C@H]2O)c(=O)[nH]1 [Uridine] |  |  |  |  |  | > 1000 | 0.15±0.03 |  | > 5000 |  |
| C/C(=C\CNc1ncnc2c1ncn2[C@@H]1O[C@H](CO)[C@@H](O)[C@H]1O)CO (relative stereo) [tZR, trans-zeatin riboside] | 2.7±0.3 | 0.83±0.08 |  | 2.7±0.4 | 3.8±0.4 |  |  | 0.74±0.06 |  |  |
| Nc1nc2c(ncn2[C@@H]2O[C@H](CO)[C@@H](O)[C@H]2O)c(=O)[nH]1 [Guanosine] |  |  |  |  |  |  |  |  | 217 ± 107 |  |
| Nc1ncnc2c1ncn2[C@@H]1O[C@H](COP(=O)(O)OP(=O)(O)O)[C@@H](O)[C@H]1O [ADP] |  |  |  |  |  |  |  |  |  | Kd ([3]; 50 mM HEPES pH 7.5, 1 mM MgCl2, read-out: KD): 10300 ± 1200 µM |
| OC[C@H]1O[C@@H](n2cnc3c(O)ncnc32)[C@H](O)[C@@H]1O [Inosine] |  |  |  |  |  |  |  |  | 440 ± 180 |  |
